Source: ChEMBL document CHEMBL5729134, “Apoptosis signal-regulating kinase 1 inhibitors and methods of use thereof” (2022)

Target: T1, Mitogen-activated protein kinase kinase kinase 5 (Homo sapiens, UniProt Q99683)
T1 sequence (Q99683 whole entry): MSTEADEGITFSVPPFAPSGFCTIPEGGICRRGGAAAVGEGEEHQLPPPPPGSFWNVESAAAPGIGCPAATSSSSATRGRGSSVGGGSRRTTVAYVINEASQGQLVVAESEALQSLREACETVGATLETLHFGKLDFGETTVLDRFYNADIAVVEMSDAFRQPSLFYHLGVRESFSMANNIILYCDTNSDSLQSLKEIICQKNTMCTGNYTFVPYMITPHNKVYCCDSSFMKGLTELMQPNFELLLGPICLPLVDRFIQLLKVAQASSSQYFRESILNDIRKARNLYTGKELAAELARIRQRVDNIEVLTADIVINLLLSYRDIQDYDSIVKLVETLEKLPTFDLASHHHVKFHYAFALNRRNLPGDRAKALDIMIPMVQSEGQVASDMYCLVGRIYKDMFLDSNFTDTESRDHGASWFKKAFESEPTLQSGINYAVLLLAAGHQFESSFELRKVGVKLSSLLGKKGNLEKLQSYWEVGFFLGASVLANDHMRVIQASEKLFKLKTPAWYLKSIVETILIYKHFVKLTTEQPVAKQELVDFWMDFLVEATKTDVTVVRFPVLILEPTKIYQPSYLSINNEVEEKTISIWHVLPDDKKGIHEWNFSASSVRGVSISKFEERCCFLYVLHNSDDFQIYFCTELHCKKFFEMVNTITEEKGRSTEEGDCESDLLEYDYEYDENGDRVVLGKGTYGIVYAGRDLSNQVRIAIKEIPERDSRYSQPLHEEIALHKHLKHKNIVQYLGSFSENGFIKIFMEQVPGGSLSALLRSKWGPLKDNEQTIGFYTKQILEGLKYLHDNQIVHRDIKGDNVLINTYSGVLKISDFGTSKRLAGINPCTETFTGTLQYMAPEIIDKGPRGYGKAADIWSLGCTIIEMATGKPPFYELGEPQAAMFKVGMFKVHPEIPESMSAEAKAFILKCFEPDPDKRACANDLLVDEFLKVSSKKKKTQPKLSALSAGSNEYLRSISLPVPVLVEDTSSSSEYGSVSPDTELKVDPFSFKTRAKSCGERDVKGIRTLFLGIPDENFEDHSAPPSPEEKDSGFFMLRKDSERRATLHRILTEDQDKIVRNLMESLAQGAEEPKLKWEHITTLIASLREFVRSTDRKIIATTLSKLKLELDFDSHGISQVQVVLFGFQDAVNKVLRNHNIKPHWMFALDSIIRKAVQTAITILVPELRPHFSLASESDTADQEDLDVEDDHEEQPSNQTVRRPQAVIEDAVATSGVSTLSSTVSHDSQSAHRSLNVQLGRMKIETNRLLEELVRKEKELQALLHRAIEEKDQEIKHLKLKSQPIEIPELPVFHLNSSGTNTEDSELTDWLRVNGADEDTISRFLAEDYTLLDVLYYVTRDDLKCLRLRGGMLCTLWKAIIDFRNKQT
Test: HTRF KinEASE Assay : ASK1 was purchased from Thermofisher (Catalogue #PV4011), ATP was purchased from Sigma (Catalogue #A7699), HTRF® KinEASE Assay System was obtained from Cisbio (Bedford, Mass.). ½ Area plate was purchased from Perkin Elmer (Catalogue ##6005560). HTRF® KinEASE-STK is a generic method for measuring serine/threonine kinase activities using a time-resolved fluorescence resonance energy transfer (TR-FRET) immunoassay. The IC50 value for each compound was determined in the presence of compound (various concentration from 0 to 10 μM) and a fixed amount of ATP and peptide substrates. The test compound, 1 μM STK3 peptide substrate, and […] are incubated with kinase reaction buffer containing 50 mM HEPES Ph 7.5, 0.01% BRIJ-35, 10 mM MgCl2, and 1 mM EGTA for 30 minutes. 100 μM ATP is added to start kinase reaction and incubated for 3 hours. The STK3-antibody labeled with Eu3+-Cryptate and 125 nM streptavidin-XL665 are mixed in a single addition with stop reagents provided by the Cisbio kit used to stop the kinase reaction. Fluorescence is detected using an Envision Multilabeled 2014 reader from PerkinElmer. The Fluorescence is measured at 615 nm (Cryptate) and 665 nm (XL665) and a ratio of 665 nm/615 nm is calculated for each well. The resulting TR-FRET is proportional to the phosphorylation level. Staurosporine was used as the positive control. IC50 was determined by Xlfit 5.3.

Row | IC50 [nM] | SMILES
1 | < 1.25 | COc1cc2c(cc1C(=O)Nc1cccc(-c3nncn3C(C)C)n1)CN(C(=O)N1CCCC1)CC2
2 | 1.25 to 10 | C[C@H](CO)n1cnnc1-c1cccc(NC(=O)c2cc3c(cc2F)CCN(C(=O)OC2CCCC2)C3)n1
3 | 1.25 to 10 | CC(C)CN1CCc2cnc(C(=O)Nc3cccc(-c4nncn4[C@H](C)CO)n3)cc2C1
4 | < 1.25 | COc1cc2c(cc1C(=O)Nc1cccc(-c3nnnn3[C@H](C)CO)n1)CN(C(=O)N1CCCC1)CC2
5 | 1.25 to 10 | COc1cc2c(cc1C(=O)Nc1cccc(-c3nncn3[C@H](C)CO)n1)CN(S(=O)(=O)C1CC1)CC2
6 | < 1.25 | COc1cc2c(cc1C(=O)Nc1cccc(-c3nnnn3C(C)C)n1)CN(S(=O)(=O)C1CC1)CC2
7 | < 1.25 | COc1cc2c(cc1C(=O)Nc1cccc(-c3nncn3[C@H](C)CO)n1)CN(C)CC2
8 | 1.25 to 10 | C[C@H](CO)n1cnnc1-c1cccc(NC(=O)c2cc3c(cc2F)CCN(C)C3)n1
9 | 1.25 to 10 | COc1cc2c(cc1C(=O)Nc1cccc(-c3nncn3C(C)C)n1)CN(C(=O)C(C)(C)C)CC2
10 | 1.25 to 10 | COc1cc2c(cc1C(=O)Nc1cccc(-c3nncn3[C@H](C)CO)n1)CN(C(=O)c1ccc(F)cc1)CC2
11 | < 1.25 | C[C@H](CO)n1cnnc1-c1cccc(NC(=O)c2cc3c(cc2F)CCN(S(=O)(=O)CCC(F)(F)F)C3)n1
12 | 1.25 to 10 | COc1cc2c(cc1C(=O)Nc1cccc(-c3nnnn3[C@@H]3CCC[C@@H]3O)n1)CN(C(=O)OCC(F)(F)F)CC2
13 | 1.25 to 10 | C[C@H](CO)n1cnnc1-c1cccc(NC(=O)c2cc3c(cc2F)CCN(C(=O)OC2CC2)C3)n1
14 | 1.25 to 10 | COc1cc2c(cc1C(=O)Nc1cccc(-c3nncn3[C@H](C)CO)n1)CN(C(=O)OC(C)C)CC2
15 | < 1.25 | COc1cc2c(cc1C(=O)Nc1cccc(-c3nnnn3C(C)C)n1)CN(C(=O)C(C)(C)C)CC2
16 | < 1.25 | COc1cc2c(cc1C(=O)Nc1cccc(-c3nncn3[C@H](C)CO)n1)CN(C(=O)C(C)(C)C)CC2
17 | < 1.25 | CCOC(=O)N1CCc2cc(F)c(C(=O)Nc3cccc(-c4nncn4[C@H](C)CO)n3)cc2C1
18 | < 1.25 | C[C@H](CO)n1cnnc1-c1cccc(NC(=O)c2cc3c(cc2F)CCN(C(=O)OCCF)C3)n1
19 | 1.25 to 10 | COc1cc2c(cc1C(=O)Nc1cccc(-c3nncn3C(C)C)n1)CN(S(=O)(=O)C1CC1)CC2
20 | < 1.25 | COc1cc2c(cc1C(=O)Nc1cccc(-c3nnnn3[C@H](C)CO)n1)CN(C(=O)OC(C)C)CC2
21 | < 1.25 | CC(C)OC(=O)N1CCc2cc(F)c(C(=O)Nc3cccc(-c4nncn4[C@H](C)CO)n3)cc2C1
22 | 1.25 to 10 | CC(C)n1cnnc1-c1cccc(NC(=O)c2cc3c(cn2)CCN(S(=O)(=O)c2ccccc2)C3)n1
23 | < 1.25 | CCOC(=O)N1CCc2cnc(C(=O)Nc3cccc(-c4nncn4[C@H](C)CO)n3)cc2C1
24 | < 1.25 | COc1cc2c(cc1C(=O)Nc1cccc(-c3nnnn3[C@H](C)CO)n1)CN(C(=O)OCc1ccccc1)CC2

Row | IC50 [nM] | SMILES
25 | < 1.25 | C[C@H](CO)n1cnnc1-c1cccc(NC(=O)c2cc3c(cn2)CCN(Cc2ccccn2)C3)n1
26 | < 1.25 | C[C@H](CO)n1cnnc1-c1cccc(NC(=O)c2cc3c(cn2)CCN(S(=O)(=O)c2ccccc2)C3)n1
27 | < 1.25 | CCNC(=O)N1CCc2cc(OC)c(C(=O)Nc3cccc(-c4nncn4[C@H](C)CO)n3)cc2C1
28 | < 1.25 | COc1cc2c(cc1C(=O)Nc1cccc(-c3nncn3[C@H](C)CO)n1)CN(C(=O)OC(C)(C)C)CC2
29 | < 1.25 | C[C@H](CO)n1cnnc1-c1cccc(NC(=O)c2cc3c(cc2F)CCN(C(=O)OCC(F)(F)F)C3)n1
30 | 1.25 to 10 | COc1cc2c(cc1C(=O)Nc1cccc(-c3nnnn3[C@H](C)CO)n1)CN(C(=O)C(C)(C)CO)CC2
31 | < 1.25 | COc1cc2c(cc1C(=O)Nc1cccc(-c3nnnn3C(C)C)n1)CN(C)CC2
32 | < 1.25 | C[C@H](CO)n1cnnc1-c1cccc(NC(=O)c2cc3c(cc2F)CCN(C(=O)N2CCCC2)C3)n1
33 | 1.25 to 10 | C[C@H](CO)n1cnnc1-c1cccc(NC(=O)c2cc3c(cc2F)CCN(C(=O)N(C)C)C3)n1
34 | 1.25 to 10 | C[C@H](CO)n1cnnc1-c1cccc(NC(=O)c2cc3c(cc2F)CCN(C(=O)C(C)(C)C)C3)n1
35 | < 1.25 | CCOC(=O)N1CCc2cc(OC)c(C(=O)Nc3cccc(-c4nncn4[C@H](C)CO)n3)cc2C1
36 | 1.25 to 10 | COc1cc2c(cc1C(=O)Nc1cccc(-c3nncn3C(C)C)n1)CN(C(C)C)CC2
37 | < 1.25 | CCNC(=O)N1CCc2cc(F)c(C(=O)Nc3cccc(-c4nncn4[C@H](C)CO)n3)cc2C1
38 | 1.25 to 10 | CC(C)COC(=O)N1CCc2cc(F)c(C(=O)Nc3cccc(-c4nncn4[C@H](C)CO)n3)cc2C1
39 | 1.25 to 10 | CCNC(=O)N1CCc2cc(OC)c(C(=O)Nc3cccc(-c4nnnn4[C@H](C)CO)n3)cc2C1
40 | < 1.25 | COc1cc2c(cc1C(=O)Nc1cccc(-c3nncn3C(C)C)n1)CN(C(=O)OCC(F)(F)F)CC2
41 | < 1.25 | COc1cc2c(cc1C(=O)Nc1cccc(-c3nnnn3C(C)C)n1)CN(C(=O)N1CCCC1)CC2
42 | < 1.25 | COc1cc2c(cc1C(=O)Nc1cccc(-c3nncn3[C@H](C)CO)n1)CN(C(=O)N1CCCC1)CC2
43 | 1.25 to 10 | COc1cc2c(cc1C(=O)Nc1cccc(-c3nncn3C(C)C)n1)CN(S(=O)(=O)CCC(F)(F)F)CC2
44 | < 1.25 | CC(C)n1cnnc1-c1cccc(NC(=O)c2cc3c(cn2)CCN(Cc2ccccn2)C3)n1
45 | < 1.25 | COc1cc2c(cc1C(=O)Nc1cccc(-c3nncn3[C@H](C)CO)n1)CN(C(C)C)CC2
46 | < 1.25 | COc1cc2c(cc1C(=O)Nc1cccc(-c3nnnn3C(C)C)n1)CN(C(=O)OC(C)C)CC2
47 | < 1.25 | CCOC(=O)N1CCc2cc(OC)c(C(=O)Nc3cccc(-c4nnnn4C(C)C)n3)cc2C1
